Like-named read-outs stand apart in the source and are kept apart here.
Columns and labels:
[1] = test system: barnyardgrass; assay: Test C flooded paddy test; type: in vivo, Echinochloa crus-galli; conditions: Echinochloa crus-galli
Method in brief: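 After a postemergence application at 1 to 4 leaves (plants 2–18 cm high), or at 2 leaves for barnyardgrass in flooded paddy, plants stayed in the greenhouse for 12 to 14 days. Damage was then judged visually relative to control plants, with 100 indicating complete control.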

[2] = test system: rice; assay: Test B pre-/postemergence herbicide test; type: in vivo, Oryza sativa; conditions: 0 = no effect, 100 = complete control; for plant injury at 125 g/ha / plant injury at 500 g/ha: Oryza sativa, pre-emergence, 336 h; for plant injury at 125 g/ha: read-out: Rice plant response rating (0 to 100 scale); for plant injury at 500 g/ha: read-out: Plant response rating, Rice
Method in brief: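 Herbicidal effect was judged by eye on a 0–100 scale after plants stood 13 to 15 days in the greenhouse following pre- or postemergence treatment with surfactant-containing formulations.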

[3] = test system: large crabgrass; assay: Test A pre-/postemergence herbicide test; type: in vivo, Digitaria sanguinalis; conditions: Digitaria sanguinalis, 240 h; for pest or weed control at 500 g/ha: 500 g ai/ha; for pest or weed control at 2000 g/ha: 2000 g ai/ha
Method in brief: (§1)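 Plants are held in greenhouse about ten days after treatment, then compared with untreated controls and scored 0 (no effect) to 100 (complete control). Preemergence dosing is a directed soil spray on sown sandy loam; postemergence dosing is spray to runoff at 2–10 cm height.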

[4] = test system: giant foxtail; assay: Test A pre-/postemergence herbicide test; type: in vivo, Setaria faberi; conditions: Setaria faberi, 240 h; for pest or weed control at 500 g/ha: 500 g ai/ha; for pest or weed control at 2000 g/ha: 2000 g ai/ha
Method in brief: as §1

[5] = test system: redroot pigweed; assay: Test A pre-/postemergence herbicide test; type: in vivo, Amaranthus retroflexus; conditions: Amaranthus retroflexus, 240 h; for pest or weed control at 500 g/ha: 500 g ai/ha; for pest or weed control at 2000 g/ha: 2000 g ai/ha
Method in brief: as §1

| Compound | pest or weed control at 62 g/ha ([1]; 62 g ai/ha, scale 0 to 100 (0 no effect, 100 complete control), read-out: Barnyardgrass plant response rating) | pest or weed control at 125 g/ha ([1]; 125 g ai/ha, scale 0 to 100 (0 no effect, 100 complete control), read-out: Barnyardgrass plant response rating) | pest or weed control at 250 g/ha ([1]; 250 g ai/ha, scale of 0 to 100, 0 is no effect, 100 is complete control, read-out: Barnyardgrass plant response rating) | pest or weed control at 500 g/ha ([1]; 500 g ai/ha, visual rating after 12 to 14 days, scale 0 to 100 (0 no effect, 100 complete control), read-out: Plant response rating, Barnyardgrass) | plant injury at 125 g/ha ([2]; 125 g ai/ha) | plant injury at 500 g/ha ([2]; 500 g ai/ha, visual rating) | pest or weed control at 500 g/ha ([3]; post-emergence, Postemergence, 0 to 100 scale, 0 no effect, 100 complete control, read-out: Crabgrass, Large plant response rating) | pest or weed control at 2000 g/ha ([3]; post-emergence, Postemergence, 0 to 100 scale, 0 no effect, 100 complete control, read-out: Plant response rating, Crabgrass, Large) | pest or weed control at 2000 g/ha ([3]; pre-emergence, Preemergence, visual rating, 0 to 100 scale (0 no effect, 100 complete control), read-out: Crabgrass, Large plant response rating) | pest or weed control at 500 g/ha ([3]; pre-emergence, preemergence, visual injury, 0 to 100 scale (0 no effect, 100 complete control), read-out: Crabgrass, Large plant response rating) | pest or weed control at 500 g/ha ([4]; post-emergence, Postemergence, 0 to 100 scale, 0 no effect, 100 complete control, read-out: Foxtail, Giant plant response rating) | pest or weed control at 2000 g/ha ([4]; post-emergence, Postemergence, 0 to 100 scale, 0 no effect, 100 complete control, read-out: Plant response rating, Foxtail, Giant) | pest or weed control at 2000 g/ha ([4]; pre-emergence, Preemergence, visual rating, 0 to 100 scale (0 no effect, 100 complete control), read-out: Foxtail, Giant plant response rating) | pest or weed control at 500 g/ha ([4]; pre-emergence, preemergence, visual injury, 0 to 100 scale (0 no effect, 100 complete control), read-out: Foxtail, Giant plant response rating) | pest or weed control at 500 g/ha ([5]; post-emergence, Postemergence, 0 to 100 scale, 0 no effect, 100 complete control, read-out: Pigweed plant response rating) | pest or weed control at 2000 g/ha ([5]; post-emergence, Postemergence, 0 to 100 scale, 0 no effect, 100 complete control, read-out: Plant response rating, Pigweed) | pest or weed control at 2000 g/ha ([5]; pre-emergence, Preemergence, visual rating, 0 to 100 scale (0 no effect, 100 complete control), read-out: Pigweed plant response rating) | pest or weed control at 500 g/ha ([5]; pre-emergence, preemergence, visual injury, 0 to 100 scale (0 no effect, 100 complete control), read-out: Pigweed plant response rating) | Rice plant response rating (0 to 100 scale) ([2]; 125 g ai/ha, preemergence) | Plant response rating, Rice ([2]; 500 g ai/ha, visual rating, preemergence) |
| --- | --- | --- | --- | --- | --- | --- | --- | --- | --- | --- | --- | --- | --- | --- | --- | --- | --- | --- | --- | --- |
| CCn1nc(C(C)(C)C)cc1C(=O)Nc1ccc(F)c(C(=O)N(C)C)c1 [Compound 236, N-[3-[(dimethylamino)carbonyl]-4-fluorophenyl]-3-(1,1-dimethylethyl)-1-ethyl-1H-pyrazole-5-carboxamide] | 0% | 0% | 15% | 40% | 40% | 60% |  |  |  |  |  |  |  |  |  |  |  |  |  |  |
| CCOC(=O)c1ccc(F)c(NC(=O)C2CC(C(C)(C)C)=NN2CC)c1 (stereo not shown) [Compound 267, ethyl 3-[[[3-(1,1-dimethylethyl)-1-ethyl-4,5-dihydro-1H-pyrazol-5-yl]carbonyl]amino]-4-fluorobenzoate] |  |  |  |  | 20% | 40% | 45% | 75% | 90% | 15% | 30% | 55% | 85% | 75% | 40% | 60% | 80% | 5% |  |  |
| CCn1nc(C(C)(C)C)cc1C(=O)Nc1cc(C(=O)OC(C)C)c(F)cc1F [Compound 248] |  |  |  |  |  |  |  |  |  |  |  |  |  |  |  |  |  |  | 0 | 0 |
